Square brackets hold non-standard residues; d marks the D form. Peptide text beside a SMILES is read from it. * marks the point of attachment. d(hPhe) = N[C@H](CCc1ccccc1)C(=O)O; dPhg = N[C@@H](C(=O)O)c1ccccc1; Tos = Cc1ccc(S(=O)(=O)*)cc1; Ms = CS(=O)(=O)*
Tests used:
Type in all cases: biochemical
[1] = target: T1, Recombinant human calpain I (Homo sapiens, UniProt P07384); test: Inhibition of calpain I activity; settings: Table III
T1 construct: made in house
T1 sequence (P07384 1-714): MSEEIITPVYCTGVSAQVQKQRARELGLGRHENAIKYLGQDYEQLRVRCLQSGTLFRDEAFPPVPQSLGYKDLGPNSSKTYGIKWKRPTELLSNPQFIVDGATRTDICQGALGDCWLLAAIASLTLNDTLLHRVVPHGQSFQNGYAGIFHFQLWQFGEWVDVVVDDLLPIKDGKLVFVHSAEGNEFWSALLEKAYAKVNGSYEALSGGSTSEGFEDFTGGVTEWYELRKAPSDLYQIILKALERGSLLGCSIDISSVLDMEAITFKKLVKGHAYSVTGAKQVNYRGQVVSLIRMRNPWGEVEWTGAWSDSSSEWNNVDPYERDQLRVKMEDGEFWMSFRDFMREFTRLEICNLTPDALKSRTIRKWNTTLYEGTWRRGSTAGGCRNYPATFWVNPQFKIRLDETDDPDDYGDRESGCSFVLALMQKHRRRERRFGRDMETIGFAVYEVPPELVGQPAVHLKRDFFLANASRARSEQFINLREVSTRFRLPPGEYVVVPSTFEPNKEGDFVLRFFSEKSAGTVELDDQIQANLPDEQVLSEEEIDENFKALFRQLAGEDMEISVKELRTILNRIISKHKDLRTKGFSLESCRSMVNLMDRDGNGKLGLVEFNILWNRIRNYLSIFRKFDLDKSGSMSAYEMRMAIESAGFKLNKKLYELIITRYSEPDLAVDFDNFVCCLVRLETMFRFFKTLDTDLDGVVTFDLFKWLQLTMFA
Protocol: To evaluate inhibitory activity, stock solutions (40 times concentrated) of exemplary compounds of the invention were prepared in 100% anhydrous DMSO and 5 μL of each inhibitor preparation were aliquoted into each of three wells of a 96-well plate. Recombinant human calpain I, prepared by the method of Meyer et al. (Biochem. […] To start the reaction, 20 μL of 50 mM CaCl2 in assay buffer was added to all wells of the plate, excepting three, which were used as background signal baseline controls. Substrate hydrolysis was monitored every 5 minutes for a total of 30 minutes. […] Inhibition of calpain I activity was calculated as the percent decrease in the rate of substrate hydrolysis in the presence of inhibitor (VI) relative to the rate in its absence (VO). Comparison between VO and VI was made within the linear range for substrate hydrolysis. For screening, compounds were tested at 10, 1.0, and 0.1 μM. […] The results were plotted as % inhibition versus log inhibitor concentration and the IC50 was calculated from linear regression of the data. Apparent second order rate constants were determined from analysis of reaction progress curves under pseudo-first order conditions. Each determination represents the means of three or more independent single cuvette analyses continually monitored via a Perkin-Elmer LS50B spectrofluorimeter. The rate of inhibition of hydrolysis was obtained by fitting the curve to the exponential equation (1): […]

[2] = target: T2, cathepsin L (Homo sapiens, UniProt P07711); test: Inhibition of cathepsin L; settings: Table III; 1 uM; read-out: Cat L % I @ 1 uM
T2 construct: purchased Calbiochem 219402
Protocol: (§1) Additionally,the order of reagents added to the plate was altered because both enzymes are constitutively active. Following inhibitor addition to the plates, appropriate 2× concentrated stock dilutions of the enzyme preparations were made in assay buffer and 100 μl added to each well. The assay was initiated by addition of 100 μl of 2× concentrated stock dilution of substrate in assay buffer.

[3] = target: T3, cathepsin B (Homo sapiens, UniProt P07858); test: Inhibition of cathepsin B; settings: Table III; for inhibition at 1 µM: read-out: Cat B % I @ 1 uM; for IC50: read-out: Cat B IC50
T3 construct: purchased Calbiochem 219364
Protocol: as §1

[4] = target: T4, thrombin (Homo sapiens, UniProt P00734); test: Inhibition of thrombin; settings: Table III; 10 uM; read-out: Thrombin % I @ 10 uM
T4 construct: purchased Sigma Chem. Co. T-7009

[5] = target: T5, α-chymotrypsin (Bos taurus, UniProt P00766); test: Inhibition of α-chymotrypsin; settings: Table III; 10 uM; read-out: Chymotrypsin % I @ 10 uM
T5 construct: purchased Sigma Chem. Co. C-3142
Protocol: Additionally, because α-chymotrypsin is not a calcium sensitive enzyme and is constitutively active, following addition of inhibitor stocks to the 96 well plates, 100 μl of a 2-fold concentrated stock of enzyme in dilution buffer was first added and the reaction started by addition of 100 μl of a 2-fold concentrated stock of substrate in assay buffer. Substrate hydrolysis was monitored every 5 minutes up to 30 minutes using a Fluoroskan II ([…]).

T2 sequence (P07711 114-288 limits assumed): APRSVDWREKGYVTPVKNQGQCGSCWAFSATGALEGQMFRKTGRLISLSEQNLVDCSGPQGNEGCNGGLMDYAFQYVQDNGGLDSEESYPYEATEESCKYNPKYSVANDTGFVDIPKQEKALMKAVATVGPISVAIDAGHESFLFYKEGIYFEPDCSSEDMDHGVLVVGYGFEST
T2 sequence (P07711 292-333 limits assumed): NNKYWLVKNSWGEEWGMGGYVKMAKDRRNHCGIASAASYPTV

| IC50 [1] | inhibition at 0.1 µM [1] | inhibition at 1 µM [2] | inhibition at 1 µM [3] | inhibition at 10 µM [4] | inhibition at 10 µM [5] | IC50 [3] | Compound |
| --- | --- | --- | --- | --- | --- | --- | --- |
| 13 nM | 95% | 100% | 100% | 4% | 3% | – | O=C[C@H](Cc1ccccc1)NC(=O)[C@@H](COCc1ccccc1)NS(=O)(=O)c1cccs1 [Compound 54] |
| 20 nM | 86% | 100% | 100% | 0% | 4% | 5 nM | O=C[C@H](Cc1ccccc1)NC(=O)[C@@H](Cc1ccccc1)NS(=O)(=O)c1ccccc1 [Compound 59] |
| 33 nM | 74% | 100% | 97% | 0% | 0% | – | CCS(=O)(=O)N[C@H](Cc1ccccc1)C(=O)N[C@H](C=O)Cc1ccccc1 [Compound 60] |
| 22 nM | 83% | 100% | 100% | 0% | 0% | – | Cc1ccc(S(=O)(=O)N[C@H](Cc2ccccc2)C(=O)N[C@H](C=O)Cc2ccccc2)cc1 [Compound 61] (Tos-[dF]-Phe-aldehyde) |
| 39 nM | 71% | 89% | 85% | 0% | 4% | – | CS(=O)(=O)N[C@H](CCc1ccccc1)C(=O)N[C@H](C=O)Cc1ccccc1 [Compound 62] (Ms-[d(hPhe)]-Phe-aldehyde) |
| 16 nM | 85% | 100% | 90% | 0% | 12% | – | CS(=O)(=O)N[C@H](Cc1ccccc1)C(=O)N[C@H](C=O)Cc1ccccc1 [Compound 70] (Ms-[dF]-Phe-aldehyde) |
| 20 nM | 91% | 99% | 100% | 10% | 2% | – | O=C[C@H](Cc1ccccc1)NC(=O)[C@@H](Cc1ccccc1)NS(=O)(=O)c1cccs1 [Compound 75] |
| 13 nM | 88% | 90% | 79% | 1% | 30% | 250 nM | CS(=O)(=O)N[C@@H](C(=O)N[C@H](C=O)Cc1ccccc1)c1ccccc1 [Compound 76] (Ms-[dPhg]-Phe-aldehyde) |
| 14 nM | 91% | 93% | 90% | 0% | 0% | – | CS(=O)(=O)N[C@H](Cc1c[nH]c2ccccc12)C(=O)N[C@H](C=O)Cc1ccccc1 [Compound 77] (Ms-[dW]-Phe-aldehyde) |
| 12 nM | 94% | 100% | 100% | 0% | 0% | 6 nM | CN(Cc1ccccc1)C(=O)C[C@@H](NS(C)(=O)=O)C(=O)N[C@H](C=O)Cc1ccccc1 [Compound 78] |
| 1000 nM | 47% | 93% | 99% | 1% | 8% | – | CN(Cc1ccccc1)C(=O)CC[C@@H](NS(C)(=O)=O)C(=O)N[C@H](C=O)Cc1ccccc1 [Compound 79] |
| 15 nM | 90% | 100% | 99% | 4% | 8% | 46 nM | CS(=O)(=O)N[C@H](CS(=O)(=O)Cc1ccccc1)C(=O)N[C@H](C=O)Cc1ccccc1 [Compound 80] |
| 520 nM | 37% | 53% | 62% | 7% | 0% | – | CN([C@H](COCc1ccccc1)C(=O)N[C@H](C=O)Cc1ccccc1)S(C)(=O)=O [Compound 83] |
| – | 2% | 93% | 22% | 0% | 0% | – | CS(=O)(=O)N[C@H](COCc1ccccc1)C(=O)N[C@@H](C=O)Cc1ccccc1 [Compound 84] |

More lines, now with the values behind:

| Compound | IC50 [1] | inhibition at 0.1 µM [1] | inhibition at 1 µM [2] | inhibition at 1 µM [3] | inhibition at 10 µM [4] | inhibition at 10 µM [5] | IC50 [3] |
| --- | --- | --- | --- | --- | --- | --- | --- |
| O=C[C@H](Cc1ccccc1)NC(=O)[C@@H](COCc1ccccc1)NS(=O)(=O)N1CCOCC1 [Compound 53] | 72 nM | 25% | 100% | 98% | 0% | 0% | – |
| Cc1noc(C)c1S(=O)(=O)N[C@H](COCc1ccccc1)C(=O)N[C@H](C=O)Cc1ccccc1 [Compound 55] | 25 nM | 87% | 100% | 90% | 2% | 12% | – |
| O=C[C@H](Cc1ccccc1)NC(=O)[C@@H](COCc1ccccc1)NC(=O)OCc1ccccc1 [Compound 64] | – | 68% | 100% | 87% | 0% | 10% | – |
| O=C[C@H](Cc1ccccc1)NC(=O)[C@@H](Cc1c[nH]c2ccccc12)NS(=O)(=O)c1ccccc1 [Compound 71] | 31 nM | 92% | 100% | 100% | 11% | 5% | – |
| O=C[C@H](Cc1ccccc1)NC(=O)[C@@H](Cc1ccccc1)NS(=O)(=O)c1ccc2ccccc2c1 [Compound 72] | 14 nM | 91% | 100% | 100% | 13% | 7% | – |
| O=C[C@H](Cc1ccccc1)NC(=O)[C@@H](Cc1c[nH]c2ccccc12)NS(=O)(=O)c1cccs1 [Compound 73] | 14 nM | 95% | 100% | 100% | 12% | 16% | – |
| O=C[C@H](Cc1ccccc1)NC(=O)[C@@H](Cc1ccccc1)NS(=O)(=O)c1cccc2cccnc12 [Compound 74] | 33 nM | 83% | 100% | 100% | 6% | 13% | – |
| CCNC(=O)C(=O)[C@H](Cc1ccccc1)NC(=O)[C@@H](COCc1ccccc1)NS(C)(=O)=O [Compound 81] | 180 nM | 18% | 100% | 73% | 0% | 2% | – |
| CC(C)(C)OC(=O)N[C@H](COCc1ccccc1)C(=O)N[C@H](C=O)Cc1ccccc1 [Compound 82] | – | 4% | 93% | 60% | 6% | 8% | – |

From patent US5852007A, “Cysteine and serine protease inhibitors containing D-amino acid at the P2 position, methods of making same, and methods of using same” (priority 1997, dated 1998)
